Experimental data taken from patent US7625872B2, “Branched immunomodulatory compounds and methods of using the same” (Dynavax Technologies Corporation, priority 2002, dated 2009).

Key:
[1] = tested on: human PBMC cells; experiment: human PBMC assay: IFN-γ and IFN-α in cell-free medium by ELISA; type: cell-based; conditions: for IFN-α (pg/ml) 17240 / IFN-γ (pg/ml) 17240: donor 17240; for IFN-α (pg/ml) 17240 / IFN-γ (pg/ml) 17240 / IFN-α (pg/ml) 17241 / IFN-γ (pg/ml) 17241 / IFN-α (pg/ml) 17242 / IFN-γ (pg/ml) 17242 / IFN-α (pg/ml) 17243 / IFN-γ (pg/ml) 17243 / IFN-α (pg/ml) mean: test samples 20 μg/ml, '+ PLGA' = premixed with 100 μg/ml cPLGA; for IFN-α (pg/ml) 17240 / IFN-γ (pg/ml) 17240 / IFN-α (pg/ml) 17241 / IFN-γ (pg/ml) 17241 / IFN-α (pg/ml) 17242 / IFN-γ (pg/ml) 17242 / IFN-α (pg/ml) 17243 / IFN-γ (pg/ml) 17243 / IFN-α (pg/ml) mean / IFN-α +PLGA / IFN-γ +PLGA / IFN-α −PLGA / IFN-γ −PLGA: 24 hours; for IFN-α (pg/ml) 17240 / IFN-γ (pg/ml) 17240 / IFN-α (pg/ml) 17241 / IFN-γ (pg/ml) 17241 / IFN-α (pg/ml) 17242 / IFN-γ (pg/ml) 17242 / IFN-α (pg/ml) 17243 / IFN-γ (pg/ml) 17243: SAC 1/5000 dilution; for IFN-α (pg/ml) 17241 / IFN-γ (pg/ml) 17241: donor 17241; for IFN-α (pg/ml) 17242 / IFN-γ (pg/ml) 17242: donor 17242; for IFN-α (pg/ml) 17243 / IFN-γ (pg/ml) 17243: donor 17243; for IFN-α (pg/ml) mean: mean of 4 donors; for IFN-α +PLGA / IFN-γ +PLGA / IFN-α −PLGA / IFN-γ −PLGA: mean results (Table 4; unit in Table 3); for IFN-α +PLGA / IFN-γ +PLGA: 20 μg/ml formulated with 100 μg/ml cPLGA; for IFN-α −PLGA / IFN-γ −PLGA: compound alone, 20 μg/ml
Protocol: Peripheral blood was collected from volunteers by venipuncture using heparinized syringes. Blood was layered onto a FICOLL® (Amersham Pharmacia Biotech) cushion and centrifuged. PBMCs, located at the FICOLL® interface, were collected, then washed twice with cold phosphate buffered saline (PBS). The cells were resuspended and cultured in 48 well plates or 96-well plates at 2×10^6 cells/mL at 37° C. in RPMI 1640 with 10% heat-inactivated human AB serum plus 50 units/mL penicillin, 50 μg/mL streptomycin, 300 μg/mL glutamine, 1 mM sodium pyruvate, and 1×MEM non-essential amino acids (NEAA).
The cells were cultured in the absence of test samples, in the presence of test samples at 20 μg/ml (0.5 OD/ml), or in the presence of test samples at 20 μg/ml premixed with 100 μg/ml cationic poly(lactic acid, glycolic acid) microcarriers (cPLGA; see infra) (when used) for 24 hours. Cell-free medium was then collected from each well and assayed for IFN-γ and IFN-α concentrations. SAC (Pansorbin CalBiochem, 1/5000 dilution) was used as a positive control. SAC is Staph. aureus (cowan) cell material.
IFN-γ and IFN-α were assayed using CYTOSCREEN™ ELISA kits from BioSource International, Inc., according to the manufacturer's instructions.
Compound B07 (see Example 1, above) was tested for immunomodulatory activity in human PBMC cells as outlined in Example 9, above. For comparison purposes, the immunomodulatory activities of a variety of polynucleotides and chimeric molecules containing spacer moieties were also assayed. The syntheses and features of immunomodulatory chimeric molecules like compounds C-101, C-124, and C-125 are described in U.S. patent application Ser. No. 10/176,883 entitled, “Chimeric Immunomodulatory Compounds and Methods of Using the Same,” filed on Jun. 21, 2002, herein incorporated by reference. All nucleotide linkages and linkages between NAMs, spacer moieties and branch-point nucleosides in the listed compounds are phosphorothioate esters. HEG=hexaethylene glycol; symmetrical doubler=1,3-diamino-2-propanol; trebler=modified pentaerythritol; T-C6=2′-deoxyuridine; AHA=aminohexyl-3(E)-acrylamido linked at the C-5 position of 2′-deoxyuridine (see FIG. 1A). The compounds were each tested both alone and formulated with cPLGA (see Example 9, supra).

[2] = solubility of spacer moiety measured as dialcohol precursor; type: physicochemical; conditions: dodecyl spacer measured as dialcohol precursor; water solubility
Protocol: In addition, a spacer moiety that has low solubility, such as a dodecyl spacer (solubility <5 mg/ml when measured as dialcohol precursor 1,12-dihydroxydodecane) is not preferred because it can reduce the hydrophilicity and activity of the BIC. Preferably, spacer moieties have solubility much greater than 5 mg/ml (e.g., solubility at least about 20 mg/ml, at least about 50 mg/ml or at least about 100 mg/ml), e.g., when measured as dialcohol precursors. The form of the spacer moiety used for testing its water solubility is generally its most closely related unactivated and unprotected spacer precursor molecule.

Compound | IFN-α (pg/ml) 17240 [1] [pg/mL] | IFN-γ (pg/ml) 17240 [1] [pg/mL] | IFN-α (pg/ml) 17241 [1] [pg/mL] | IFN-γ (pg/ml) 17241 [1] [pg/mL] | IFN-α (pg/ml) 17242 [1] [pg/mL] | IFN-γ (pg/ml) 17242 [1] [pg/mL] | IFN-α (pg/ml) 17243 [1] [pg/mL] | IFN-γ (pg/ml) 17243 [1] [pg/mL] | IFN-α (pg/ml) mean [1] [pg/mL] | IFN-α +PLGA [1] [pg/mL] | IFN-γ +PLGA [1] [pg/mL] | IFN-α −PLGA [1] [pg/mL] | IFN-γ −PLGA [1] [pg/mL] | solubility [2] [µg/mL] | immunomodulatory activity compared with linear polynucleotide P-6 ([1]; PBMC assays, in words) | induction of IFN-γ and IFN-α compared with chimeric compounds ([1]; PBMC assays, in words)
5′-TGACTGTGAACCTTAGAGATGA-3′ (DNA TGACTGTGAACCTTAGAGATGA; DNA, all phosphorothioate, methylation of C not given here) [P-7] | 30 | 35 | 30 | 127 | 30 | 10 | 30 | 58 | 30 | 30 | 34 | 30 | 58 | – | – | –
5′-TGACTGTGAACGTTCGAGATGA-3′ [P-6] | 86 | 172 | 30 | 158 | 57 | 47 | 30 | 77 | 51 | 295 | 568 | 51 | 113 | – | – | –
OCCCCCCCCCCCCO [1,12-dihydroxydodecane] | – | – | – | – | – | – | – | – | – | – | – | – | – | < 5000 | – | –
(5-TCGACGT-3′-HEG)2-(T-C6)-AHA-HEG-5′-TCGACGT-3′ [B07] | 1080 | 205 | 122 | 108 | 1039 | 30 | 201 | 140 | 610 | 7298 | 883 | 610 | 121 | – | far superior immunomodulatory activity than the linear polynucleotide P-6 | activity similar to the immunomodulatory chimeric compounds C-101, C-124, and C-125
(5′-TAGTCAT-3′-HEG)2-glycerol-HEG-5′-AACCTTC-3′ [M-100] | 30 | 27 | 30 | 71 | 30 | 10 | 30 | 41 | 30 | 69 | 136 | 30 | 37 | – | – | –
